Source: patent US20220338477A1, “MYCOBACTERIUM BACTERICIDE” (SANKEI CO., LTD., priority 2019, published 2022)

Assays:
M. intracellulare = assay: Test for studying disinfecting effect of chlorous acid aqueous solution and sodium hypochlorite on M. intracellulare; format: cell-based, Mycobacterium intracellulare; conditions: for free chlorine concentration (as Cl) at which a disinfecting effect (reducing the bacteria count 4 log or greater) is exhibited: contact time 1 min
Protocol: (§1) As a measuring method of free chlorine (as Cl), a buffer and a DPD indicator are added to a sample and a wavelength of 510 nm is measured with an absorption spectrophotometer, and for measurement of free chlorine (as Cl) in the presence of an organic matter, measurement is taken at a wavelength of 655 nm using a TMB reagent to find the concentration from the measurement values. Further, a method of conducting a test for studying the disinfecting effect prepares free chlorine (as Cl) of a test agent by a DPD method, contacts each agent with an organic matter-containing bacterial solution, neutralizes the solution with sodium thiosulfate after a certain period of time has passed, and checks the viable bacteria count of the neutral solution.
For the “chlorous acid aqueous solution formulation manufactured with chlorous acid aqueous solution” prepared based on the preparation method described above, the concentration of “chlorous acid aqueous solution” was measured based on the “Quantification method of chlorous acid aqueous solution” described above, and buffer prepared to achieve the free chlorine concentration described in each Example (phosphate buffer comprising dipotassium hydrogen phosphate and potassium dihydrogen phosphate) was used to prepare the chlorous acid aqueous solution of each Example.
The disinfecting effects of chlorous acid aqueous solutions and sodium hypochlorite on M. intracellulare were studied in the absence of an organic matter and in the presence of an organic matter, i.e., 0.5% bovine serum albumin (hereinafter, BSA) (FIG. 1). If an effect of reducing the bacteria count is 4 log or greater, the agent is considered as having a disinfecting effect.

[1] = system: other mycobacteria (JCM135429, JCM135430, JCM135431, JCM135432, JCM6387, JCM6390, JCM13569); assay: Disinfecting effect on other mycobacteria; format: cell-based
Protocol: as §1
Additional studies were conducted to find whether a disinfecting effect is observed on other mycobacteria. In the absence of organic matters, an effect of chlorous acid aqueous solutions was also observed on other mycobacteria at free chlorine of 50 ppm or greater, whereas an effect was not observed from sodium hypochlorite at 200 ppm (FIG. 7). The same results as the results for M. intracellulare were obtained.

[2] = system: chromosomal DNA of M. intracellulare; assay: Pulsed-field gel electrophoresis of chromosomal DNA after disinfection of M. intracellulare; format: cell-based, Mycobacterium intracellulare; conditions: compared with water
Source text: In order to study the disinfection mechanism of chlorous acid aqueous solutions, with the understanding that a chlorous acid aqueous solution is unlikely to disinfect by acting on the bacterial surface in view of the results of SEM, chromosomal DNA was extracted from bacteria after disinfection, and the state of the chromosomal DNA was examined through pulsed-field gel electrophoresis in order to study the effect of a chlorous acid aqueous solution on chromosomal DNA of bacteria.

## OCl [sodium hypochlorite]
M. intracellulare; absence and presence of organic matter (0.5% BSA)
  disinfecting effect (FIG. 1): not found
M. intracellulare; absence of an organic matter
  free chlorine concentration (as Cl) at which a disinfecting effect (reducing the bacteria count 4 log or greater) is exhibited: > 200 ppm
M. intracellulare; presence of an organic matter (0.5% BSA)
  free chlorine concentration (as Cl) at which a disinfecting effect (reducing the bacteria count 4 log or greater) is exhibited: > 1000 ppm
[1]; absence of organic matters (FIG. 7)
  free chlorine at which a disinfecting effect was observed: > 200 ppm
[1]; presence of 0.5% BSA (FIG. 8)
  free chlorine at which a disinfecting effect was observed: > 1000 ppm
[2]
  state of chromosomal DNA band in pulsed-field gel electrophoresis: a band is formed at the same position as water
